Reference: paper PMC9705736, “Synthesis of activity evaluation of flavonoid derivatives as ɑ-glucosidase inhibitors” (Frontiers in Chemistry, 2022)

Key:
[1] = molecular target: T1, α-Glucosidase from Saccharomyces cerevisiae (EC 3.2.1.20) (Saccharomyces cerevisiae, UniProt P53341); assay: biochemical
T1 construct: purchased Sigma-Aldrich

[2] = molecular target: T1, α-Glucosidase from Saccharomyces cerevisiae (EC 3.2.1.20); assay: Enzyme inhibitory mechanism and kinetic type assay (Lineweaver-Burk plots); type: biochemical; conditions: compound 0–25 μM
Excerpt: To study the inhibitory mechanisms of all derivatives on α-glucosidase, enzyme inhibitory mechnism was detected using compound 4 with the strongest inhibitory. Figure 3A illustrated the plots of enzyme activity vs. enzyme concentration.
The kinetic type was also studied using Lineweaver-Burk plots.
α-Glucosidase from Saccharomyces cerevisiae (EC 3.2.1.20) and p-Nitrophenyl-α-D-[…] (p-NPG) were purchased from Sigma-Aldrich. All additional reagents and solvents were readily obtained from a commercial source. NMR spectra were obtained on 500 MHz equipment in CDCl3. High-resolution mass spectral (HRMS) data was recorded on Apex II using the ESI technique.
The α-glucosidase inhibitory activity of compounds (1 ∼ 6) was detected as described in previous reports ([Adisakwattana et al., 2009]; [Adisakwattana et al., 2013]; [Zhang et al., 2022]). 10 μl α-glucosidase solution, 10 μl compound were added into 80 μl phosphate buffer, and the mixture was incubated for 10 min. Then, 100 μl p-NPG solution was added into the mixture, followed by the absorbance change detection at 405 nm. The inhibition rate (%) = […] × 100%, where OD1 and OD0 were the absorbance of tested compound and blank, respectively. The IC50 value was calculated from the plot of inhibition rate vs. compound concentration. Acarbose was used as a positive sample. All samples were repeated four times. The enzyme inhibitory mechnism and kinetic type were also determined according to previous reported reports ([Adisakwattana et al., 2004]; [Song et al., 2016]).

T1 sequence (P53341 whole entry): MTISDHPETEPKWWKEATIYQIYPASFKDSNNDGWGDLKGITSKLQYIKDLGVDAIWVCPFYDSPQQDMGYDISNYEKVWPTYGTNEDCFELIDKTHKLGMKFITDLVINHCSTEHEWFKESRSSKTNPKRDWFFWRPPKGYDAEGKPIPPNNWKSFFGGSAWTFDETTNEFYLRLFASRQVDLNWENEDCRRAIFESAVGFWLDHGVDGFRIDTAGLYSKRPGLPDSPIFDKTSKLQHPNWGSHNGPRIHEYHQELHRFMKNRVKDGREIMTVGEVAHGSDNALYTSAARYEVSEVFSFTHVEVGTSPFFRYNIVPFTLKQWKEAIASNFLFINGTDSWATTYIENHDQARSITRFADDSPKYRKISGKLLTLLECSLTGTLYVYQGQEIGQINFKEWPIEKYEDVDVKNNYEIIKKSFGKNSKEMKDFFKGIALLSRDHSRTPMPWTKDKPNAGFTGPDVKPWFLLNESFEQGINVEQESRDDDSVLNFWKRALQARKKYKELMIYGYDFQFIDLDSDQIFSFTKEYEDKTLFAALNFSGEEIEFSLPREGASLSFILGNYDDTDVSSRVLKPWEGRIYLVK

Compound	melting point [°C]	IC50 [1] [µM]	Inhibition type (Lineweaver-Burk plots of enzyme activity vs. substrate concentration) [2]	Inhibitory mechanism (plots of enzyme activity vs. enzyme concentration) [2]	Inhibition type (Lineweaver-Burk plots of enzyme activity vs. substrate concentration) ([2]; listed as derivative four)	Inhibitory mechanism (plots of enzyme activity vs. enzyme concentration) ([2]; listed as derivative four)
Cc1ccc(CCC(=O)Oc2ccc(-c3cc(=O)c4ccccc4o3)cc2)cc1 [Compound 2]	135 to 136	21.55 ± 0.13				
O=C(CCc1ccc(Br)cc1)Oc1ccc(-c2cc(=O)c3ccccc3o2)cc1 [Compound 4]	127 to 129	15.7 ± 0.21	mix-type inhibition	reversible inhibitor	mixed-type inhibitor	reversible
O=C(CCc1ccc(C(F)(F)F)cc1)Oc1ccc(-c2cc(=O)c3ccccc3o2)cc1 [Compound 6]	250 to 251	27.54 ± 0.02				
O=C(CCc1ccc(Cl)cc1)Oc1ccc(-c2cc(=O)c3ccccc3o2)cc1 [Compound 3]	112 to 114	31.09 ± 0.1				
O=C(CCc1ccc(F)cc1)Oc1ccc(-c2cc(=O)c3ccccc3o2)cc1 [Compound 5]	103 to 104	19.66 ± 0.04				
O=C(CCc1ccccc1)Oc1ccc(-c2cc(=O)c3ccccc3o2)cc1 [Compound 1]	133 to 134	42.06 ± 0.08				
